Results reported in PubChem BioAssay AID179 (DTP/NCI, 2004).
The source made the active and inactive calls.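 The calls were made as follows: active = compounds giving half or more protection of infected cells from virus-caused growth loss, again on retest; inactive = the rest.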

Tested on: CEM cells HIV-1 protection, formazan growth assay
Assay: NCI AIDS Antiviral Assay
Conditions: for IC50: measured here: growth of uninfected CEM cells
In short: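 Human CEM cells, uninfected and HIV-1-infected, received five drug concentrations, and growth was read by soluble formazan assay. Compounds giving at least 50% protection were retested; reproducible 100% protection defined confirmed active.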

Row | Structure (SMILES) | EC50 [µM] | IC50 [µM] | outcome
1 | O=C(NO)C12C3C4C1C1C2C3C41C(=O)NO (centres undefined) | > 1120 | 631 | –
2 | O=C1C2C3C=C4c5ccccc5N(c5ccccc5)C4(C2C(=O)N1c1ccccc1)C1C(=O)N(c2ccccc2)C(=O)C31 (centres undefined) | – | – | inactive
3 | COc1ccc(C2S/C(=C\c3cccc(OC)c3)C(=O)N2NC(=O)Cc2ccccc2)cc1 (centres undefined) | > 107 | > 107 | –
4 | CC(C)(SSC(C)(C)C1NC(=O)NC1=O)C1NC(=O)NC1=O (centres undefined) | > 200 | 120 | –
5 | Cc1cc(=S)c2cc3c(cc2[nH]1)OCO3 | > 200 | 79.4 | –
6 | NC(=S)C(=S)N/C=C(/c1ccc(Cl)cc1)S(=O)(=O)Cc1ccc(Cl)cc1 | – | – | inactive
7 | NC1=NS(=O)(=O)Nc2nonc21 | > 1320 | > 1320 | –
8 | COc1cc(C2C(Cl)C(=O)N2NC(=O)Cc2ccccc2)cc(Br)c1O (centres undefined) | > 30.9 | > 30.9 | –
9 | CCCCCCCCC1=C(OC)C(=O)c2ccc(Cl)nc2C1=O | – | – | inactive
10 | CC(C)(C)C1CCC(C[Se]c2ccccc2)([N+](=O)[O-])CC1 (centres undefined) | – | – | inactive
11 | O=C1CC(c2ccccc2)NN1c1ccccc1 (centres undefined) | – | – | inactive
12 | CCC(C)C1C(=O)ON=C1N (centres undefined) | > 200 | > 200 | –
13 | CCOC(=O)N/N=C/C1=NN(C(=O)OCC)S(=O)C1C (centres undefined) | > 200 | > 200 | –
14 | S=C(Nc1cccc(Cl)c1)Nc1ccccn1 | > 200 | > 200 | –
15 | CC(C)(C)c1ccc(OC(=O)Nc2ccc(O)c(C(=O)O)c2)cc1 | > 200 | > 200 | –
16 | O=c1oc2ccccc2c(O)c1C(C/C(CCN1CCCC1)=N/O)c1ccccc1 (centres undefined) | > 42.7 | > 42.7 | –
17 | C/C(=N\N)C(CN1CCCCC1)C(c1ccccc1)c1c(O)c2ccccc2oc1=O (centres undefined) | > 107 | 69.2 | –
18 | N#CC1=C(O)NC(O)=C(C#N)C1c1c(Cl)cccc1Cl | > 427 | 27.5 | –
19 | Clc1cc2nncc(N3CC3)c2cc1Cl | – | – | inactive
20 | O=C1OCC(Cc2ccc3c(c2)OCO3)[C@H]1Cc1cccc(O)c1 (some centres undefined) | > 200 | 79.4 | –
21 | N#Cc1ccc(Oc2cccc(Oc3ccccc3)c2)cc1C#N | > 43.7 | > 43.7 | –
22 | O=C(NCCN1CCOCC1)C1(O)N=C(c2ccccc2)c2ccsc2-n2cccc21 (centres undefined) | > 200 | 123 | –

Row | Structure (SMILES) | EC50 [µM] | IC50 [µM] | outcome
23 | [N-]=[N+]=NC1(Cc2ccccc2)C(=O)c2cccc3c2N(CCC3)C1=O (centres undefined) | – | – | inactive
24 | CCOC(=O)c1cnc2oc(-c3ccc(OC)cc3)nn2c1=O | – | – | inactive
25 | O=C(O)CCCC(=O)Nn1c(Cc2ccc(Cl)cc2)n[nH]c1=O | > 200 | > 200 | –
26 | C=CC1CCC[N+]1(CC(=O)OCC)Cc1ccccc1 (centres undefined) | > 200 | > 200 | –
27 | CC1=C(C(=O)NCCCN(CCO)CCO)CC(C(=O)NCCCN(CCO)CCO)=C(C)N1 | > 200 | 112 | –
28 | COC(=O)C1=C(C(=O)OC)C2(c3ccccc3)OC1(c1ccccc1)c1cc3ccccc3cc12 | – | – | inactive
29 | COC(=O)c1cc(CC2Cc3cc4c(cc3C2)CCC4)cc2c1CCC2 | > 200 | > 200 | –
30 | c1c[nH]c(Cc2ncc(Cc3cnc[nH]3)[nH]2)n1 | – | – | inactive
31 | CC1CC(=O)N(N(C)C)C(C#N)(C#N)C1(C#N)C#N (centres undefined) | > 200 | 3.16 | –
32 | O=C(/C=C/c1ccc2c(c1)OCO2)c1cc(Cl)cc(Cl)c1O | – | – | inactive
33 | Nc1ncnc2c1ncn2-c1ccc([N+](=O)[O-])cn1 | – | – | inactive
34 | S=C(N/N=C/c1ccccc1Cl)Nc1ccccc1 | > 200 | 135 | –
35 | CC1=C(C(=O)NCc2ccccc2)C(c2ccccc2O)C(C(=O)NCc2ccccc2)=C(C)N1 | > 200 | 33.9 | –
36 | CCc1nc2c(O)ccc(O)c2nc1C | > 178 | 10.5 | –
37 | C/C(CN1C(=O)c2ccccc2C1=O)=N\NS(=O)(=O)c1ccc2ccccc2c1 | > 447 | > 447 | –
38 | O=C(Cc1ccccc1)NN1C(=O)/C(=C\c2ccc([N+](=O)[O-])cc2)SC1=Nc1ccccc1 | > 56.2 | > 56.2 | –
39 | COC(=O)C(CCCC1(c2ccccc2)OCCO1)C(C)=O (centres undefined) | > 200 | > 200 | –
40 | Cc1ccc2nc(C(=O)O)c(=O)[nH]c2c1 | – | – | inactive
41 | CCCCCC(/C=C/[C@@H]1[C@@H](C(O)CCCCCC(=O)OC)C(=O)C[C@H]1O[Si](C)(C)C(C)(C)C)OCOCCOC (some centres undefined) | – | – | inactive
42 | CCNC(=S)N/N=C/c1ccccn1 | > 200 | 0.851 | –
43 | CCC12CCCN(Cc3ccccc3)C1c1c([nH]c3ccccc13)C(CO)C2 (centres undefined) | > 26.3 | > 26.3 | –
44 | NS(=O)(=O)c1ccc(NC2=CC(=O)C(=O)c3ccccc32)cc1 | > 30.2 | > 30.2 | –

Row | Structure (SMILES) | EC50 [µM] | IC50 [µM] | outcome
45 | Cc1c(NC(=O)CSC(=S)N(C)C)c(=O)n(-c2ccccc2)n1C | 89.1 | > 200 | –
46 | COC1N(C2C=CC(CO)O2)C(=O)NC(=O)C1(C)Br (centres undefined) | 100 | 129 | –
47 | O=C(CC1(O)C(=O)Nc2c(Cl)cc(Cl)cc21)c1cccc2ccccc12 (centres undefined) | > 67.6 | > 67.6 | –
48 | CC(C)(C)OC(=O)N[C@@H](Cc1ccccc1)CN1CCCC1C(=O)O (some centres undefined) | > 3390 | 2570 | –
49 | CC(CO)C1=C(c2c[nH]c3ccccc23)C2C(C)C[C@H](O)C3(C)C(C)CCC(O)C23CC1 (some centres undefined) | – | – | inactive
50 | C[C@@H]1O[C@]2(O)[C@@H]3CCCN3S(=O)(=O)CCN2C1=O | > 912 | > 912 | –
51 | COC(=O)C(NC(=O)C(CC(=O)OC(C)(C)C)NC(=O)OC(C)(C)C)C(O)c1ccccc1 (centres undefined) | > 200 | > 200 | –
52 | CN(C)CC/C(=N\Nc1ccc(Cl)c(Cl)c1)c1ccccc1 | – | – | inactive
53 | N#CN=C(N)NC(=O)c1ccccc1 | – | – | inactive
54 | CC(=O)N1CC(O)(c2ccccc2)CSc2ccccc21 (centres undefined) | > 107 | > 107 | –
55 | COc1ccc(/C=C2\c3cc(OC)c(OC)cc3CCN2C(=O)c2ccccc2)cc1OC | > 200 | 57.5 | –
56 | CC(C)CC(NC(=O)C(Cc1ccccc1)NC(=O)[C@H]1CC[C@H](NC(=O)C(Cc2ccc(OC(C)(C)C)cc2)NC(=O)OC(C)(C)C)C1)C(N)=O (some centres undefined) | – | – | inactive
57 | COC(=O)CNCC1OC2OC(C)(C)OC2C1N=[N+]=[N-] (centres undefined) | > 200 | > 200 | –
58 | O=C(/C=C/c1ccc(O)c(O)c1)O[C@H](C(=O)O)[C@H](OC(=O)/C=C/c1ccc(O)c(O)c1)C(=O)O | > 85.1 | 20 | –
59 | COc1cc(Nc2nc3ccc(C(F)(F)F)cc3nc2-c2ccccc2)cc(OC)c1OC | > 20.9 | > 20.9 | –
60 | O=[N+]([O-])c1ccc(Cl)c([N+](=O)[O-])c1 | > 200 | 3.31 | –
61 | Cc1ccc(/C=C2\CN(C)CC3=C2OC(N)=C(C#N)C3c2ccc(C)cc2)cc1 (centres undefined) | > 200 | 10.2 | –
62 | Cc1n[nH]c(=O)n1-c1cccnc1 | > 200 | > 200 | –
63 | O=c1c(-c2ccc(O)cc2)coc2cc(OC3OC(CO)C(O)C(O)C3O)cc(O)c12 (centres undefined) | > 200 | > 200 | –
64 | C[Si](C)(c1ccccc1)C1CC(=O)CC(=O)C1 | > 380 | 245 | –
65 | COc1ccc(C2C(C#N)=C(S)N(C3OC(COC(C)=O)C(OC(C)=O)C(OC(C)=O)C3OC(C)=O)C(C)=C2C(C)=O)cc1 (centres undefined) | > 200 | 53.7 | –
66 | Cc1coc2c1C(=O)C(=O)c1c-2ccc2c1CCCC2(C)C | > 200 | 25.7 | –
